Legend:
Format in all cases: in vivo, Mouse/C57BL/6
[1] = Bleomycin (BLM)-induced lung fibrosis in mice: body weight over 21 days; conditions: for Percent Change in Body Weight / Body Weight: doses as Table 1; for Body Weight: group mean; for changes in body weight as compared to the BLM-vehicle group (in words): doses as Table 1, p.o. once daily
Protocol: (§1) The mouse species or strain was Mouse/C57BL/6, the mice being 8-10 week old males. Nine groups of 10 mice each were obtained from Charles River Laboratories. Each group was randomized based on body weight. Bleomycin (BLM) was obtained from Euroasias.
(§2) The mice were anesthetized with isoflurane/O2 mixture. Bleomycin (BLM) was then administered to the mice intratracheally (PennCentury)—single bolus, at 2.5 U/kg body weight in 50 μl sterile saline.
(§3) Seven days after the bleomycin is administered, and fibroblasts have generally proliferated, six of the nine groups of IT bleomycin challenged mice were be dosed orally (p.o.) once a day with Bromantane, Ifenoprodil, Radiprodil, Bemithyl, Dexamethasone, or Repirinast at specified amounts per kg of body weight (mg/kg) daily for 14 consecutive days. The amounts are set out in Table 1 below. The vehicle used was 0.5% carboxymethyl cellulose (CMC). Prifenidone was also prepared in 0.5% CMC and administrated orally once a day to one of the nine IT bleomycin challenged mice groups beginning for 14 consecutive days. Vehicle and no-BLM control groups received 0.5% CMC orally for 14 consecutive days.
Body Weight: The body weights were measured over 21 days using a laboratory balance.

BLM-induced fibrosis [2] = assay: Bleomycin (BLM)-induced lung fibrosis in mice: Gomori's Trichrome score of lung sections; conditions: for Trichrome score (average) / % reduction in fibrosis: day 21; for Trichrome score (average): BLM 2.5 U/kg intratracheal, p.o. once daily 14 days from day 7, mg/kg: Pirfenidone 300, Bromantane 20, Ifenoprodil 30, Radiprodil 30, Bemithyl 200, Dexamethasone 0.25, Repirinast 90, Normal 1.00, Vehicle 4.59; for Trichrome score response versus BLM-vehicle group (in words) / percent reduction in lung fibrosis in comparison to the BLM-vehicle group (in words): doses as Table 1, order: Dexamethasone and Repirinast, followed by Ifenprodil and Radiprodil; for % reduction in fibrosis: from Trichrome scores relative to vehicle and normal groups, doses as Table 1, p.o. once daily 14 days; for improvement in lung fibrosis, loss of body weight, Trichrome score and mortality as compared to BLM-vehicle (conclusion, in words): oral administration, Dexamethasone 0.25, Repirinast 90, Ifenprodil 30, Radiprodil 30 mg/kg
Protocol: as §1, §2, §3
On day 21 of the study, 4 hours after the last dose, the mice were sacrificed and plasma was collected and frozen for cytokine analysis (testing for IL-6, IL-12, TGFβ, IL-13 proteins, or fibrosis markers). Bronchoalveolar lavage fluid (BALF) was collected and frozen for optional cytokine analyses and cell counts pending the initial data. The lungs were then excised, weighed and fixed in formalin. Gomori's Trichrome stain, a histological stain, was used to determine collagen content.
Trichrome Score: A trichrome score measures the level of scarring to the lungs caused by the disease. The greater the trichrome score, the greater the scarring.
Formalin fixed lung samples were submitted to affiliated histopathology laboratory for histopathological analysis subjected Gomori's Trichrome stain, a histological stain, which was used to determine collagen content.
Each lung was divided into ten sections. All ten sections were stained and evaluated. A board certified veterinarian pathologist assessed the presence of lung fibrosis and severity score—The expression of collagen (associated with fibrosis) is determined from the ratio of the stained area versus the total area of the lung section.

BLM-induced fibrosis [3] = assay: Bleomycin (BLM)-induced lung fibrosis in mice: mortality rate over 21 days; conditions: doses as Table 1; for Fatality Number: deaths/mice per group over 21 days, Vehicle 2/10; for percent survival (in words): order: Dexamethasone and Repirinast, followed by Ifenprodil and Radiprodil; for Percent Fatality: over 21 days, Vehicle 20%
Protocol: as §1, §2, §3
Mortality Rate: the mortality rate in each group was also observed over 21 days.

Compound | Percent Change in Body Weight ([1]; 7-Nov) [%] | Body Weight ([1]; 7-Nov) [g] | Percent Change in Body Weight ([1]; 8-Nov) [%] | Body Weight ([1]; 8-Nov) [g] | Percent Change in Body Weight ([1]; 9-Nov) [%] | Body Weight ([1]; 9-Nov) [g] | Percent Change in Body Weight ([1]; 12-Nov) [%] | Body Weight ([1]; 12-Nov) [g] | Percent Change in Body Weight ([1]; 14-Nov) [%] | Body Weight ([1]; 14-Nov) [g] | Percent Change in Body Weight ([1]; 16-Nov) [%] | Body Weight ([1]; 16-Nov) [g] | Percent Change in Body Weight ([1]; 20-Nov) [%] | Body Weight ([1]; 20-Nov) [g] | Percent Change in Body Weight ([1]; 22-Nov) [%] | Body Weight ([1]; 22-Nov) [g] | Percent Change in Body Weight ([1]; 26-Nov) [%] | Body Weight ([1]; 26-Nov) [g] | Percent Change in Body Weight ([1]; 28-Nov) [%] | Body Weight ([1]; 28-Nov) [g] | also measured
C[C@@H]([C@H](O)c1ccc(O)cc1)N1CCC(Cc2ccccc2)CC1 (stereo in doubt) [Ifenoprodil, 4-[2-(4-benzylpiperidin-1-ium-1-yl)-1-hydroxypropyl] phenol; 2,3,4-trihydroxy-4-oxobutanoate] | 0.0 | 24.4 | −0.1 | 24.3 | −0.3 | 24.1 | −2.0 | 22.4 | −1.3 | 23.1 | −0.8 | 23.6 | −0.3 | 24.1 | 0.5 | 24.9 | 0.2 | 24.6 | 0.7 | 25.1 | changes in body weight as compared to the BLM-vehicle group (in words) [1]: showed improvement beginning on Day 5; Trichrome score (average) (BLM-induced fibrosis [2]): 3.37; Trichrome score response versus BLM-vehicle group (in words) (BLM-induced fibrosis [2]): response was better; percent reduction in lung fibrosis in comparison to the BLM-vehicle group (in words) (BLM-induced fibrosis [2]): higher; % reduction in fibrosis (BLM-induced fibrosis [2]): 34.0%; improvement in lung fibrosis, loss of body weight, Trichrome score and mortality as compared to BLM-vehicle (conclusion, in words) (BLM-induced fibrosis [2]): showed improvement; Fatality Number (BLM-induced fibrosis [3]): 0/10; percent survival (in words) (BLM-induced fibrosis [3]): higher; Percent Fatality (BLM-induced fibrosis [3]): 0%
CCSc1nc2ccccc2[nH]1 [Bemithyl, 2-Ethylsulfanyl-1H-benzoimidazole] | 0.0 | 24.6 | 0.0 | 24.7 | −0.6 | 24.1 | −1.6 | 23.0 | −1.1 | 23.5 | −1.7 | 22.9 | −1.6 | 23.1 | −0.6 | 24.0 | −0.9 | 23.7 | −0.3 | 24.3 | changes in body weight as compared to the BLM-vehicle group (in words) [1]: showed improvement beginning on Day 5; Trichrome score (average) (BLM-induced fibrosis [2]): 4.14; % reduction in fibrosis (BLM-induced fibrosis [2]): 12.5%; Fatality Number (BLM-induced fibrosis [3]): 1/10; Percent Fatality (BLM-induced fibrosis [3]): 10%
Brc1ccc(NC2C3CC4CC(C3)CC2C4)cc1 (stereo not drawn) [Bromantane, N-(4-bromophenyl)adamantan-2-amine] | 0.0 | 24.8 | −0.1 | 24.7 | −0.8 | 24.0 | −1.8 | 23.1 | −1.1 | 23.7 | −1.5 | 23.3 | −1.9 | 22.9 | −1.6 | 23.2 | −1.0 | 23.8 | 0.4 | 25.2 | changes in body weight as compared to the BLM-vehicle group (in words) [1]: showed improvement beginning Day 5, with the exception of Day 15; Trichrome score (average) (BLM-induced fibrosis [2]): 4.00; % reduction in fibrosis (BLM-induced fibrosis [2]): 16.4%; Fatality Number (BLM-induced fibrosis [3]): 3/10; Percent Fatality (BLM-induced fibrosis [3]): 30%
C[C@@H]1C[C@H]2[C@@H]3CCC4=CC(=O)C=C[C@]4(C)[C@@]3(F)[C@@H](O)C[C@]2(C)[C@@]1(O)C(=O)CO [Dexamethasone] | 0.0 | 24.3 | −0.2 | 24.1 | −0.6 | 23.7 | −1.9 | 22.4 | −1.6 | 22.7 | −0.9 | 23.4 | −1.5 | 22.7 | −0.1 | 24.2 | 0.3 | 24.5 | 0.7 | 25.0 | changes in body weight as compared to the BLM-vehicle group (in words) [1]: showed improvement beginning on Day 5; Trichrome score (average) (BLM-induced fibrosis [2]): 2.45; Trichrome score response versus BLM-vehicle group (in words) (BLM-induced fibrosis [2]): response was better; percent reduction in lung fibrosis in comparison to the BLM-vehicle group (in words) (BLM-induced fibrosis [2]): higher; % reduction in fibrosis (BLM-induced fibrosis [2]): 59.6%; improvement in lung fibrosis, loss of body weight, Trichrome score and mortality as compared to BLM-vehicle (conclusion, in words) (BLM-induced fibrosis [2]): showed improvement; Fatality Number (BLM-induced fibrosis [3]): 2/10; percent survival (in words) (BLM-induced fibrosis [3]): higher; Percent Fatality (BLM-induced fibrosis [3]): 20%

— US12728121B2, “Compositions and methods for treating idiopathic pulmonary fibrosis” (Seyltx, Inc., priority 2019, dated 2026)
